We go through two compounds from patent publication US11293927B2, “Screening methods for PARP modulators” (Ribon Therapeutics, Inc., priority 2018, dated 2022).

For orientation: IC50 means the point on the concentration scale where inhibition reaches its midpoint.

Molecules are shown by their SMILES.

Common to all, as to assay type: cell-based
In experiment [1] the target is T1, full-length TIPARP (Homo sapiens, UniProt Q7Z3E1).
T1 construct: 1-657 of; expressed in transfected cells; host or cells: 293T cells (ATCC), pcDNA3.1
T1 sequence (Q7Z3E1 1-657): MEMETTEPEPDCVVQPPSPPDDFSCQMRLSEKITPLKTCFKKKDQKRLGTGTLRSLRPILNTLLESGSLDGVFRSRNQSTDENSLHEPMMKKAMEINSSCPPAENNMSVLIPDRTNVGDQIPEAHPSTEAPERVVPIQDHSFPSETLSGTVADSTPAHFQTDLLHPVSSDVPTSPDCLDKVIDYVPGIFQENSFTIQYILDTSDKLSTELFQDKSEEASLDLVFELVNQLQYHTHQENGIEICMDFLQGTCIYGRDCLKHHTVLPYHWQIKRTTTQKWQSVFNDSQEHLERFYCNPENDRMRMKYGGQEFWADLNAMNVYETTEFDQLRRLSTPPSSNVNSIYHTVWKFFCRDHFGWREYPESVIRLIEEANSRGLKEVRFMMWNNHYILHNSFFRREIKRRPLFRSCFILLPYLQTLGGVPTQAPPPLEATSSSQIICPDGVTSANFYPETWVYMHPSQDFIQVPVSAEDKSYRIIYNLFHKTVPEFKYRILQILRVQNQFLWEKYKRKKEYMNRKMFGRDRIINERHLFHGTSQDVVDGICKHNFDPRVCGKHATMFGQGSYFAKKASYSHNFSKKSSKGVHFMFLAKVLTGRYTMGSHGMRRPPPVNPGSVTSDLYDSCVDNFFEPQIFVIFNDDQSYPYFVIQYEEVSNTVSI
Kind of experiment: NanoBRET probe displacement assay (Probe A) in live 293T cells, full-length TIPARP. The note with it: NanoBRET displacement of Probe A, NanoLuc-tagged full-length TIPARP in live 293T cells. The procedure: (§1) MonoPARP genes from Table 5 were cloned into the pcDNA3.1-mammalian expression vector as a NanoLuc fusion with NanoLuc on the N- or C-terminus as indicated. The sequence of the NanoLuc tag is as follows: [table] Displacement of a fluorescently-labeled compound Probe A binding to NanoLuc-tagged monoPARP enzymes was measured in live cells using a bioluminescence resonance energy transfer (NanoBRET) assay. TIPARP, PARP10, PARP12 or PARP14 fused to a NanoLuc tag were overexpressed in 293T cells (ATCC) using the plasmids described herein. Plasmid DNA and empty vector DNA were added to phenol red free OptiMEM (Thermo Fisher) as shown in Table 6 in a total volume of 2.456 mL. 157 μL of Fugene HD (Promega) was added to the DNA mixture and allowed to incubate 5 min at 25° C. [table] Next, 2.375 mL of the plasmid-Fugene mixture were added to 20 million 293T cells in DMEM (Thermo Fisher) supplemented with 10% FBS (VWR). The transfection was incubated for 24 h at 37° C. in an incubator containing air supplemented with 5% CO2. The cells were resuspended in phenol red free OptiMEM media. 40 μL of cells were then added to white polystyrene 384-well non-binding surface microplate (Corning). […] Filtered luminescence was measured on an Envision (Perkin Elmer) equipped with a dual 585 nm mirror, 460±40 nm bandpass filter (donor) and 610±50 nm longpass filter (acceptor). […]

The target of experiment [2] is T2, catalytic domain TIPARP (Homo sapiens, UniProt Q7Z3E1).
T2 construct: 456-657 of; expressed in transfected cells; host or cells: 293T cells (ATCC), pcDNA3.1
T2 sequence (Q7Z3E1 456-657): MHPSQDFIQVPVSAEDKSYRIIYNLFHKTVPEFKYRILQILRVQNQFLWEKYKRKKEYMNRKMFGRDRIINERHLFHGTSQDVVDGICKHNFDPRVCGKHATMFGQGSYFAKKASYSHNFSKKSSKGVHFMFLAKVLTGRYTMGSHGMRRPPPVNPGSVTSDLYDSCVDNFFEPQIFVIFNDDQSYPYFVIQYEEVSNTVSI
Description: NanoBRET probe displacement assay (Probe A) in live 293T cells, catalytic domain TIPARP. As to conditions: NanoBRET displacement of Probe A, NanoLuc-tagged catalytic domain TIPARP in live 293T cells. The protocol:
as §1
(In general: BRET reads energy transfer from a luciferase to a nearby fluorophore.)

In experiment [3] the target is T3, PARP12 (Homo sapiens, UniProt Q9H0J9).
T3 sequence (Q9H0J9 489-684): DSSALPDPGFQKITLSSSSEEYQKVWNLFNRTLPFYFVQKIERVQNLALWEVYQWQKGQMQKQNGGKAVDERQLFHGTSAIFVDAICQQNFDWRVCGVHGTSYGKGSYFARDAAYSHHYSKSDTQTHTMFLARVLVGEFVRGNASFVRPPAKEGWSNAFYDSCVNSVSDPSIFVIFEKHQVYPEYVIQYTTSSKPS
Description: NanoBRET probe displacement assay (Probe A) in live 293T cells, PARP12. More on the design: 489-684 of; expressed in transfected cells; host or cells: 293T cells (ATCC), pcDNA3.1. As to conditions: NanoBRET displacement of Probe A, NanoLuc-tagged PARP12 in live 293T cells. The protocol:
as §1

The target in experiment [4] is T4, PARP10 (Homo sapiens, UniProt Q53GL7).
T4 sequence (Q53GL7 808-1025): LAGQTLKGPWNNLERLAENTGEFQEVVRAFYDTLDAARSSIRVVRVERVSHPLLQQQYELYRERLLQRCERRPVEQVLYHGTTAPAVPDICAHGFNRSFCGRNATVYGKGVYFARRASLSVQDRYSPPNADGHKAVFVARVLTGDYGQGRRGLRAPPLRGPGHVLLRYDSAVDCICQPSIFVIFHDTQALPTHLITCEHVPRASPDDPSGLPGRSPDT
Description: NanoBRET probe displacement assay (Probe A) in live 293T cells, PARP10. The note with it: NanoBRET displacement of Probe A, NanoLuc-tagged PARP10 in live 293T cells. The protocol:
as §1

Consider `N#Cc1ccc(N2CCN(C(=O)c3cccc(OC[C@@H]4c5ccccc5CN4c4cn[nH]c(=O)c4C(F)(F)F)c3)CC2)nc1` [Compound B, 6-[4-[(3-[[(1S)-2-[6-Oxo-5-(trifluoromethyl)-1,6-dihydropyridazin-4-yl]-2,3-dihydro-1H-isoindol-1-yl]methoxy]phenyl)carbonyl]piperazin-1-yl]pyridine-3-carbonitrile], for which the IC50 in experiment [1] was 4 nM; in experiment [2], 7 nM; in experiment [3], 170 nM.

`CC(=O)N1CCC(Oc2ccc3c(n2)CN(c2cn[nH]c(=O)c2C(F)(F)F)C3)CC1` [Compound C, 5-[2-[(1-Acetylpiperidin-4-yl)oxy]-5H,6H,7H-pyrrolo[3,4-b]pyridin-6-yl]-4-(trifluoromethyl)-2,3-dihydropyridazin-3-one] came in with an IC50 in experiment [4] of 4 nM.
